In PubChem BioAssay (NCI):
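Where inhibition never reached the appropriate level, the endpoint shown equals the highest concentration tested. Otherwise, values were interpolated linearly from a five-concentration, 48-hour dose response in 96-well plates. GI50: concentration for 50% inhibition of growth. The concentration for full growth arrest is given as TGI.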

Columns and labels:
Assay in all cases: DTP human tumour cell line panel, 48 h
A549 NSCLC = test system: A549 NSCLC
EKVX NSCLC = test system: EKVX NSCLC
HCT-15 colon = test system: HCT-15 colon
LOX IMVI melanoma = test system: LOX IMVI melanoma
NCI-H226 lung = test system: NCI-H226 lung
OVCAR-5 ovarian = test system: OVCAR-5 ovarian
SF-295 CNS = test system: SF-295 CNS
SF-539 CNS = test system: SF-539 CNS
SN12C renal = test system: SN12C renal
TK-10 renal = test system: TK-10 renal
UACC-257 melanoma = test system: UACC-257 melanoma
UACC-62 melanoma = test system: UACC-62 melanoma
MDA-MB-231 breast = test system: MDA-MB-231 breast
NCI/ADR-RES ovarian = test system: NCI/ADR-RES ovarian
HS 578T breast = test system: HS 578T breast

SMILES	TGI (A549 NSCLC) [µM]	TGI (EKVX NSCLC) [µM]	TGI (HCT-15 colon) [µM]	TGI (LOX IMVI melanoma) [µM]	TGI (NCI-H226 lung) [µM]	TGI (OVCAR-5 ovarian) [µM]	TGI (SF-295 CNS) [µM]	TGI (SF-539 CNS) [µM]	TGI (SN12C renal) [µM]	TGI (TK-10 renal) [µM]	TGI (UACC-257 melanoma) [µM]	TGI (UACC-62 melanoma) [µM]	TGI (MDA-MB-231 breast) [µM]	TGI (NCI/ADR-RES ovarian) [µM]	GI50 (A549 NSCLC) [µM]	GI50 (HCT-15 colon) [µM]	TGI (HS 578T breast) [µM]
COc1cc([C@@H]2c3cc4c(cc3[C@@H](NCc3ccccc3F)C3COC(=O)[C@@H]32)OCO4)cc(OC)c1O (stereo partly drawn)	15.1	45.9	22.4	16.7	7.52	78.4	> 100	16.2	8.08	81.4	37.2	4.43	–	–	–	–	–
CC(=O)OCC12CC(CC1OC(C)=O)c1ccccc12 (stereo not drawn)	> 100	–	> 100	> 100	> 100	> 100	> 100	–	> 100	> 100	> 100	> 100	–	–	–	–	–
CC(C)N(C(=O)C12C3C4C5C3C1(C(=O)O)C5C42)C(C)C (stereo not drawn)	> 100	> 100	> 100	> 100	–	> 100	> 100	> 100	> 100	> 100	> 100	> 100	–	–	–	–	–
CC(C)CC(=O)CC(C)[C@]1(CCCOCc2ccccc2)C(=O)N2CCC3(C[C@@]24CCC[C@H]41)OCCO3 (stereo partly drawn)	–	> 10	> 10	–	> 10	> 10	> 10	> 10	> 10	> 10	–	–	> 10	> 10	–	–	–
COc1cc2c(c(OC)c1OC)-c1ccc(SC)c(=O)cc1[C@@H](NC(=O)c1cccc([N+](=O)[O-])c1)CC2	23.1	27.3	> 100	–	–	> 100	–	0.0377	21.6	55.3	33.9	36.4	–	–	0.033	0.027	–
Cc1ccc(C(=O)NC2CCCCC2)cc1N=NN(C)C	> 100	> 100	> 100	> 100	–	–	> 100	> 100	> 100	> 100	> 100	> 100	–	–	–	–	–
NC(=O)N/N=C(\CC1OC(=O)c2ccccc21)c1ccc([N+](=O)[O-])cc1 (stereo not drawn)	> 100	> 100	59.7	33.9	–	–	> 100	55	> 100	> 100	> 100	34.8	–	–	–	–	–
CC(C)C1=Cc2ccc3c(c2C(=O)C1=O)CCCC3	34.4	19.2	9.03	25.6	36.1	28.6	25.8	16.9	13.1	6.55	6.57	15.4	34.1	52.1	–	–	55.9
CN(C)c1ccc(N=C2N=C(Nc3ccccc3)C(=Nc3ccccc3)S2)cc1	> 100	> 100	> 100	> 100	> 100	> 100	> 100	> 100	> 100	> 100	> 100	> 100	> 100	> 100	–	–	> 100
O=C1c2cc3c(cc2CC12Cc1ccccc1C2)CCC3	> 100	> 100	> 100	36	73.8	> 100	> 100	93.2	> 100	> 100	54.4	–	66.7	76.8	–	–	> 100
O=C1c2ccccc2CC12Cc1cc3c(cc1C2)CCC3	> 100	> 100	> 100	> 100	> 100	> 100	> 100	> 100	> 100	> 100	91.3	–	> 100	> 100	–	–	> 100
N#CC(NNC(=O)Cc1ccccc1)c1ccc([N+](=O)[O-])cc1 (stereo not drawn)	> 100	–	> 100	> 100	> 100	> 100	> 100	> 100	> 100	> 100	> 100	> 100	–	–	–	–	–
CC1(O)CC2C(CC1SC1CC3C(CC1(C)O)C3(C)C)C2(C)C (stereo not drawn)	> 100	83.9	> 100	–	> 100	> 100	> 100	> 100	> 100	> 100	> 100	–	–	–	–	–	–
O=C1C(Cl)C(c2ccccc2Cl)N1n1cnc2ccccc2c1=O (stereo not drawn)	> 100	> 100	> 100	> 100	91.4	> 100	> 100	–	> 100	> 100	> 100	> 100	–	–	–	–	–
NC(=O)c1ncn(C2C=CC(CP(=O)(O)O)C2)c1N (stereo not drawn)	> 100	> 100	> 100	> 100	> 100	> 100	> 100	> 100	> 100	> 100	> 100	> 100	> 100	> 100	–	–	> 100
Cc1cc(Cl)ccc1NC(=O)/C(=N\NC(C)(C)C)C(C#N)c1nc(-c2ccc([N+](=O)[O-])cc2)cs1 (stereo not drawn)	> 100	> 100	> 100	> 100	> 100	> 100	> 100	> 100	> 100	> 100	> 100	> 100	–	–	–	–	–
CCc1cccc(C(C)C)c1NC(=O)/C(=N\NC(N)=O)C(C(=O)OC)c1cnc2ccccc2n1 (stereo not drawn)	76.5	> 100	> 100	> 100	> 100	> 100	> 100	> 100	> 100	> 100	94.4	62.7	–	–	–	–	–
Cc1nc2ccc(Cl)cc2c2c1CCN2c1ccc(F)cc1	> 100	> 100	> 100	78.1	88.8	> 100	> 100	54.8	> 100	> 100	49.6	87.4	81.3	> 100	–	–	> 100
CCOC(=O)C(C)NC(=O)NC12CC3CC(CC(F)(C3)C1)C2 (stereo not drawn)	> 100	> 100	–	> 100	–	> 100	–	> 100	–	> 100	> 100	> 100	–	–	–	–	–
CC(=O)NC(CCCCNCc1ccccc1)C(=O)NCc1ccccc1 (stereo not drawn)	> 100	> 100	> 100	> 100	> 100	> 100	> 100	> 100	> 100	> 100	> 100	> 100	–	–	–	–	–
O=c1c2ccccc2n2c(-c3ccccc3O)nnc2n1-c1ccccc1	> 100	> 100	> 100	> 100	> 100	> 100	> 100	> 100	> 100	> 100	> 100	> 100	> 100	> 100	–	–	–
COC(=O)C(Cc1nc2ccc(Cl)cc2[nH]c1=O)C(=O)C(=O)Nc1cc(C)ccc1C (stereo not drawn)	> 100	> 100	> 100	> 100	> 100	> 100	> 100	> 100	> 100	> 100	> 100	> 100	–	–	–	–	–
CN(C)CC1(C)CC/C(=C\c2ccc(Cl)cc2)C1=O (stereo not drawn)	> 100	–	> 100	82.1	> 100	> 100	> 100	> 100	> 100	> 100	> 100	64.9	–	–	–	–	–
Cc1ccc(NC(=O)C2C3C=CC(O3)C2C(=O)O)cc1 (stereo not drawn)	> 100	> 100	> 100	47.4	> 100	> 100	> 100	> 100	> 100	> 100	> 100	> 100	–	–	–	–	–
O=C1/C(=C/c2ccccc2Cl)COc2ccc(Br)cc21	> 100	> 100	–	> 100	–	> 100	> 100	> 100	–	> 100	> 100	–	–	–	–	–	–
CC(=O)NC(CCCNC(=O)N(C)N=O)C(=O)NCc1ccccc1 (stereo not drawn)	> 100	> 100	> 100	> 100	> 100	> 100	> 100	> 100	> 100	> 100	> 100	> 100	–	–	–	–	–
Cc1cc(N(CCC#N)CCC#N)ccc1/C=C1N=C(/C=C\c2ccccc2)N(NC(=O)CC(=O)Nc2ccccc2Cl)C\1=O	> 100	–	> 100	> 100	> 100	> 100	> 100	> 100	> 100	> 100	> 100	> 100	–	–	–	–	–
COc1cccc([C@@H]2C/C(=N\NC(=O)C(=O)N[C@@H](C)c3ccccc3)c3ccccc3N2)c1	> 100	> 100	> 100	> 100	> 100	> 100	> 100	30.4	> 100	> 100	> 100	38.4	> 100	> 100	–	–	> 100
